Experimental data taken from patent US20060148725A1, “Selective 11beta HSD inhibitors and methods of use thereof” (The Miriam Hospital, priority 2001, published 2006).

What was measured:
rat aortic rings = experiment: Contractile response of rat aortic rings to phenylephrine; format: cell-based; details: rings incubated 24 hours with corticosterone 10 nmol/L and antisense 3 μmol/L; graded phenylephrine
Experimental: Male Sprague-Dawley (1 50-200 g) rats were anesthetized with pentobarbital (50 mg/kg IP), and a median sternotomy was performed followed by the rapid removal of the thoracic aorta. The adventitia was removed, but the endothelium was left intact. The aorta was cut into 2-3 mm rings and individual rings were placed into a single well of a twenty four well culture plate and incubated at 37° C. under 95% O2-5% CO2. Each well contained 1 mL of DMEM/F12 containing 1% fetal bovine serum, streptomycin (100 μg/ml), penicillin (100 units/ml) and amphotericin (0.25 μg/ml). […]
For contraction measurements, aortic rings were suspended by tungsten wires with 1 g of tension and placed in a vessel bath containing serum free DMEM/F12 media at 37° C. aerated with 95% O2-5% CO2, at pH 7.4. […] The intensity of contraction was assessed by use of a Narishige micromanipulator and model FT03 force transducer (Grass Instrument Co. West Warwick, R.I.). Measurements were recorded on computer using the Labview 4.1 Virtual Instrument System (National Instruments, Austin, Tex.).

11β-HSD1 [1] = experiment: Conversion of 3H-corticosterone to 11-dehydrocorticosterone by aortic rings, 11β-HSD1 antisense; format: cell-based, rat; details: 3H-corticosterone 10 nM, antisense 3 μM, 24 hrs
Experimental: (§1) The effects of 11β-HSD1 and 11β-HSD2 antisense on the inter-conversion of ^3H-corticosterone and ^3H-11-dehydro-corticosterone by aortic rings was also determined. Rings (2-3 mm) obtained in a similar manner as those in the contraction studies, were incubated in 1 ml DMEM/F12 media containing 1% FBS at 37° C. under 95% O2-5% CO2 in 24-well culture plates. Rings were incubated for 24 hours with: • (i) ^3H-corticosterone (10 nmol/L)±11β-HSD2 or 11β-HSD1 antisense (3 μmol/L); control groups received nonsense oligomers. The amount of ^3H-11-dehydro-corticqsterone in the incubation medium after 24 hrs was then measured. The effects of 11β-HSD1 antisense/nonsense were measured in quadruplicate (n=6 aortic rings per well) and the effects of 11β-HSD2 antisense/nonsense in duplicate (n=8 aortic rings per well), • (ii) ^3H-11-dehydro-corticosterone (10 nmol/L)±11β-HSD1 antisense (3 μmol/L); this experiment was performed in duplicate (n=10 aortic rings per well). Control groups were incubated with the appropriate nonsense oligomer. ^3H-corticosterone in the incubation medium after 24 hrs was then measured. In this experiment, aortic rings were also analyzed for ^3H-corticosterone content. Rings from duplicate incubations (total n=20) were blotted dry, pooled and homogenized in 50 % methanol using a Polytron. […]

11β-HSD1 [2] = experiment: RT-PCR analysis of 11β-HSD1 expression in cultured vascular cells; format: cell-based; details: cultured rat vascular endothelial and smooth muscle cells
From the text: (§2) Since 11β-HSD2 appears to exist only in endothelial cells, this observation supports a role for the action of glucocorticoids in affecting endothelial cell function. […] Further experiments to determine whether antisense oligomers down-regulate mRNA and protein expression of their respective 11β-HSD isoform under conditions in which they enhance contractile responses in aortic rings will be done.

11β-HSD1 Reductase = 11β-HSD1 Reductase (Rattus norvegicus, UniProt P16232); experiment: Metabolism of 3H-11-dehydrocorticosterone back to corticosterone by aortic rings; format: cell-based; parameters: from tissue; host or cells: rat (Sprague-Dawley) thoracic aortic rings, endothelium intact; details: 24 hours
11β-HSD1 Reductase, sequence (P16232 whole entry): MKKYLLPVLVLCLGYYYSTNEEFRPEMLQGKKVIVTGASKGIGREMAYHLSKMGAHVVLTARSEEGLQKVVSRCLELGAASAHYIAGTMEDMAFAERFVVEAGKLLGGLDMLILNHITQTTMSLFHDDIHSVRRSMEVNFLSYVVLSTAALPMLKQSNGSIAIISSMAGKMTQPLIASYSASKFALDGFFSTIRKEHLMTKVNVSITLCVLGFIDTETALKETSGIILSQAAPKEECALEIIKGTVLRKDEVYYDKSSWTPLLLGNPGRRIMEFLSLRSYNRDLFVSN
Experimental: as §1

11β-HSD2 [3] = experiment: Conversion of 3H-corticosterone to 11-dehydrocorticosterone by aortic rings, 11β-HSD2 antisense; format: cell-based, rat; details: antisense 3 μM, 24 hrs
Experimental: as §1

11β-HSD2 [4] = experiment: RT-PCR analysis of 11β-HSD2 expression in cultured vascular cells; format: cell-based; details: cultured rat vascular endothelial and smooth muscle cells
From the text: as §2

| Substance | contractile response to phenylephrine compared to corticosterone plus nonsense oligomers (rat aortic rings) | conversion of corticosterone to 11-dehydrocorticosterone, lower than with 11β-HSD1 nonsense oligomers (11β-HSD1 [1]) [%] | expression of 11β-HSD1 isoform by RT-PCR (11β-HSD1 [2]) | production of 3H-corticosterone from 3H-11-dehydrocorticosterone, incubation media, compared to nonsense oligomers (11β-HSD1 Reductase; incubation media) | production of 3H-corticosterone from 3H-11-dehydrocorticosterone, aortic ring tissue, compared to nonsense oligomers (11β-HSD1 Reductase; pooled aortic ring tissue) | reduction in the conversion of corticosterone to 11-dehydrocorticosterone compared to 11β-HSD2 nonsense (11β-HSD2 [3]) [%] | expression of 11β-HSD2 isoform by RT-PCR (11β-HSD2 [4]) |
| --- | --- | --- | --- | --- | --- | --- | --- |
| 11β-HSD1 antisense: Antisense phosphorothioate oligonucleotide blocking 11β-HSD1 gene expression, 5′-CATAACTGCCGTCCAACAGC-3′ (antisense CATAACTGCCGTCCAACAGC; all phosphorothioate, sugars by position and methylation of C not given here) | significantly increased | 21 | down-regulate | markedly reduced | markedly lower |  |  |
| 11β-HSD2 antisense: Antisense phosphorothioate oligonucleotide blocking 11β-HSD2 gene expression, 5′-AGGCCAGCGCTCCATGACTT-3′ (antisense AGGCCAGCGCTCCATGACTT; all phosphorothioate, sugars by position and methylation of C not given here) | statistically significant increase |  |  |  |  | 24 | down-regulate |
